In patent publication US8088887B2, “Peptide-conjugates that bind to VEGF-stimulated or tumor vasculature and methods of treatment” (Academia Sinica, priority 2007, dated 2012):
Entries after “also recorded” stand apart in the source; their conditions may differ.

What was measured:
oral cancer xenografts = experiment: Peptide competitive inhibition of IVO-2 phage homing, oral cancer xenografts; type: in vivo, SCID mice
[1] = tested on: NSCLC tumor mass (CL1-5-derived tumors); experiment: Peptide competitive inhibition of PC5-52 phage homing, lung cancer xenografts; type: in vivo, SCID mice
Experimental: To investigate the targeting ability of PC5-52, phages were injected into the tail vein of SCID mice bearing human lung cancer cell-derived tumors and recovered after perfusion. We determined the titers of the phages in tumor mass and other normal organs. The phage clones, or control helper phage (insertless phage), were injected into the tail vein (i.v.) of SCID mice bearing human lung cancer tumor xenografts for 8 min or 24 h. After perfusion, xenograft tumors and organs were removed and the recovered phage titered. In peptide competitive inhibition experiments, described below, phage clones were co-injected with 100 μg synthetic peptide. After injection of candidate or control phage clones, the organs and tumors were removed and divided into two parts. One part was titered by ER2738, and another part was embedded in Optimal Cutting Temperature (OCT, Tissue-Tek, NL, USA). The OCT-embedded frozen tissues were sectioned at 5 microns and transferred to cold PBS buffer. Then, the sections were fixed with acetone-methanol (1:1), washed with PBS and immersed in blocking buffer (1% BSA in PBS) for 1 h. The blocked samples were then incubated with rat anti-mouse CD31 (BD Pharmingen, Mass., USA.), rabbit anti-rat Ab (Stressgen, Canada) and immersed in Rhodamine labeled goat anti-rabbit antibody (Jackson ImmunoResearch, Pa., USA.). […]

RLLDTNRPLLPY [Control peptide, synthetic control peptide, reference compound]
inhibition of IVO-2 homing to tumor tissue (oral cancer xenografts; co-injected peptide, FIG. 2D): could not inhibit

SVSVGMKPSPRP [SP5-52]
inhibition of PC5-52 homing to NSCLC tumor mass ([1]; 100 μg peptide co-injected with phage): 97%
inhibition of tumor homing ability of PC5-52 ([1]; co-injected peptide, CL1-5-derived tumors, FIG. 2B/4B): inhibited markedly; also recorded: markedly inhibited
inhibition of IVO-2 homing to oral cancer xenografts (oral cancer xenografts; coinjection of 100 μg peptide): 95.9%
